Target: CjArsP (Campylobacter jejuni, UniProt B5LWZ8)
Assay type: biochemical

Chain of CjArsP (B5LWZ8 1-315): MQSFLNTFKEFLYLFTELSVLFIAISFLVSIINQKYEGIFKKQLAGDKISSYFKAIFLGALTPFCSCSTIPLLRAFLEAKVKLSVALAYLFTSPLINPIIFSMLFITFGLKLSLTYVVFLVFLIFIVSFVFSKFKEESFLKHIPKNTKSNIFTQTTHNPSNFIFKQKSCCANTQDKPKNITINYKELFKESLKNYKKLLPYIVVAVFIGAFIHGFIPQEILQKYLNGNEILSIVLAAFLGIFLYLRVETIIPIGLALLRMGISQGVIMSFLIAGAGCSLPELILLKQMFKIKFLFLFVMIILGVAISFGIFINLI

Question: For `C[As](O)O` [MAs(III), methylarsenite], which “uptake into everted membrane vesicles, As by ICP-MS” value is on record?
Answer: Its value is “Everted membrane vesicles from cells expressing CjarsP accumulated MAs(III) when NADH was supplied”.

From PMC4681449 (Molecular microbiology, 2015)
